Assay results as given in ChEMBL document CHEMBL5365478, “Structure-Based Design and Synthesis of Stapled 10Panx1 Analogues for Use in Cardiovascular Inflammatory Diseases” (J Med Chem, 2023).
Calls of active or inactive are those of the source. The calls are words filed in the database; no cut-off is given here. Bridge positions count the residues as written; N and C are the ends. Square brackets hold non-standard residues; d marks the D form. Triazole bridges read from a SMILES are 1,4-linked. Peptide text beside a SMILES is read from it. Lys(N3) = [N-]=[N+]=NCCCC[C@H](N)C(=O)O; Pra = C#CC[C@H](N)C(=O)O; Ahx = NCCCCCC(=O)O

Legend:
[1] = target: Pannexin-1 (Mus musculus) (UniProt Q9JIP4); assay: Inhibition of PANX1 in mouse B16-BL6 cells assessed as reduction in HOS-induced ATP release at 100 uM preincubated for 10 mins followed by HOS solution addition and measured after 30 mins by bioluminescence analysis relative to control; assay type: cell-based; conditions: time 40.0 min
Pannexin-1 (Mus musculus), sequence (Q9JIP4 whole entry): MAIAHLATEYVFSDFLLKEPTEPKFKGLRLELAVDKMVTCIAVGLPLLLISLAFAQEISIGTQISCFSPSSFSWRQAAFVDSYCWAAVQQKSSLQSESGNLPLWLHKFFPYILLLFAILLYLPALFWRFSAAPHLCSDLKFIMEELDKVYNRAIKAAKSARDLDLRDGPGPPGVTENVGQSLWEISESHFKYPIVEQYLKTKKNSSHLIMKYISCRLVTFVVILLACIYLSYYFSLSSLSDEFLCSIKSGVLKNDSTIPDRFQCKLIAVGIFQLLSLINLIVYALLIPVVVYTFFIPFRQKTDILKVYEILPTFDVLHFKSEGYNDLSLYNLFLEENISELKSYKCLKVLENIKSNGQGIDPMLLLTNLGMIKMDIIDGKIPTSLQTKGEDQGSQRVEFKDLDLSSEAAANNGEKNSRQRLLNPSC

B16-BL6 [2] = assay: Cytotoxicity against mouse B16-BL6 cells at 12.5 to 100 uM incubated for 30 mins with compound in HOS solution by LDH assay; assay type: toxicity, cell-based; conditions: b16-bl6, 0.5 h, dose 12.5-100 µM
[3] = target: Pannexin-1 (Mus musculus) (UniProt Q9JIP4); assay: Inhibition of PANX1 in mouse B16-BL6 cells assessed as reduction in HOS-induced ATP release at 12.5 uM preincubated for 10 mins followed by HOS solution addition and measured after 30 mins by bioluminescence analysis; assay type: cell-based; conditions: time 40.0 min
EA.hy 926 [4] = assay: Cytotoxicity against human EA.hy 926 cells at 12.5 to 100 uM incubated for 30 mins with compound in HOS solution by LDH assay; assay type: toxicity, cell-based; conditions: ea.hy 926, 0.5 h, dose 12.5-100 µM
[5] = Stability in human plasma assessed as intact parent compound level measured after 24 hrs by LC-MS analysis; assay type: ADME, cell-free; conditions: read-out: Stability
EA.hy 926 [6] = assay: Antiinflammatory activity in TNF-alpha stimulated human EA.hy926 cells cocultured with human THP-1 cells assessed as inhibition of monocyte adhesion at 12.5 uM incubated for 15 mins followed by adhesion for 2 hrs; assay type: functional, cell-based; conditions: time 135.0 min
[7] = target: Pannexin-1 (Homo sapiens) (UniProt Q96RD7); assay: Inhibition of PANX1 in human EA.hy 926 cells assessed as reduction in HOS-induced ATP release at 12.5 uM preincubated for 10 mins followed by HOS solution addition and measured after 30 mins by bioluminescence analysis relative to control; assay type: cell-based; conditions: time 40.0 min
Pannexin-1 (Homo sapiens), sequence (Q96RD7 whole entry): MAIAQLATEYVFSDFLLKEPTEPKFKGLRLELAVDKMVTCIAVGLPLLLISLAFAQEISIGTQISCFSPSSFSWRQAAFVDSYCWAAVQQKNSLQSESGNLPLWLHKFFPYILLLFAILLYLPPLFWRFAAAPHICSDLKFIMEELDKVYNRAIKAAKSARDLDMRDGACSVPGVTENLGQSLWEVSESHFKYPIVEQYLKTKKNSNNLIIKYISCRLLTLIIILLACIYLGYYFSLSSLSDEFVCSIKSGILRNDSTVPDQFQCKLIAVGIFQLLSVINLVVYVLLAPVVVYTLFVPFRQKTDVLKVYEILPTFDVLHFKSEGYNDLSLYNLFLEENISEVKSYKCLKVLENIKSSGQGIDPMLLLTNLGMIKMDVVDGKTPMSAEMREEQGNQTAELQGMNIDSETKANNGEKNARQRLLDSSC

[8] = target: Pannexin-1 (Mus musculus) (UniProt Q9JIP4); assay: Inhibition of PANX1 in mouse B16-BL6 cells assessed as reduction in HOS-induced Yo-Pro-1 uptake by measuring reduction in green fluorescence at 100 uM preincubated for 10 mins followed by HOS solution addition and measured after 30 mins by fluorescence based analysis relative to control; assay type: cell-based; conditions: time 40.0 min
[9] = Stability in human plasma assessed as half life at 1.2 mM incubated for 30 mins by LC-MS analysis; assay type: ADME, cell-free
[10] = target: Pannexin-1 (Mus musculus) (UniProt Q9JIP4); assay: Inhibition of PANX1 in mouse B16-BL6 cells assessed as reduction in HOS-induced Yo-Pro-1 uptake by measuring reduction in green fluorescence at 12.5 uM preincubated for 10 mins followed by HOS solution addition and measured after 30 mins by fluorescence based analysis; assay type: cell-based; conditions: time 40.0 min
[11] = target: Pannexin-1 (Rattus norvegicus) (UniProt P60570); assay: Inhibition of PANX1 in rat H9C2 cells assessed as reduction in HOS-induced ATP release at 12.5 to 100 uM preincubated for 10 mins followed by HOS solution addition and measured after 30 mins by bioluminescence analysis; assay type: cell-based; conditions: dose 12.5-100 µM, time 40.0 min
Pannexin-1 (Rattus norvegicus), sequence (P60570 whole entry): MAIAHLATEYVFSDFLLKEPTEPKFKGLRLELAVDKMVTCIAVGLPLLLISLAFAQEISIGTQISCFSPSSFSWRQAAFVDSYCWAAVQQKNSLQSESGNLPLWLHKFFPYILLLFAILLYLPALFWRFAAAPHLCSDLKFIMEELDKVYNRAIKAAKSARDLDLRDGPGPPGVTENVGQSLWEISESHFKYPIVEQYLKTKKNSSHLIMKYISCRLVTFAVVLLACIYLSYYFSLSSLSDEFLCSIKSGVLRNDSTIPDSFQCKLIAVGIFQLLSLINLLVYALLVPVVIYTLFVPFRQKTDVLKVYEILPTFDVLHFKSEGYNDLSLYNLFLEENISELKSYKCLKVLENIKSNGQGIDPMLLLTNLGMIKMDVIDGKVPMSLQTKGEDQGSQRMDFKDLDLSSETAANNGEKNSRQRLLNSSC

B16-BL6 [12] = assay: Cytotoxicity against mouse B16-BL6 cells at 6.25 to 100 uM incubated for 30 mins with compound in HOS solution by LDH assay; assay type: toxicity, cell-based; conditions: b16-bl6, 0.5 h, dose 6.25-100 µM
[13] = target: Pannexin-1 (Homo sapiens) (UniProt Q96RD7); assay: Inhibition of PANX1 in human EA.hy 926 cells assessed as reduction in HOS-induced ATP release at 100 uM preincubated for 10 mins followed by HOS solution addition and measured after 30 mins by bioluminescence analysis; assay type: cell-based; conditions: time 40.0 min
[14] = target: Pannexin-1 (Mus musculus) (UniProt Q9JIP4); assay: Inhibition of PANX1 in mouse B16-BL6 cells assessed as reduction in HOS-induced ATP release preincubated for 10 mins followed by HOS solution addition and measured after 30 mins by bioluminescence analysis; assay type: cell-based; conditions: dose 6.25-400 µM, time 40.0 min
EA.hy 926 [15] = assay: Antiinflammatory activity in TNF-alpha stimulated human EA.hy926 cells cocultured with human THP-1 cells assessed as inhibition of monocyte adhesion at 100 uM incubated for 15 mins followed by adhesion for 2 hrs relative to control; assay type: functional; conditions: EA.hy 926, 2.25 h, time 135 min

| inhibition [1] | inhibition [3] | Structure (SMILES) | Activity (B16-BL6 [2]) | Activity (EA.hy 926 [4]) | remaining at 24 h [5] | inhibition (EA.hy 926 [6]) | inhibition [7] | inhibition [8] | half-life at 1200 µM [9] | inhibition [10] | inhibition [11] | Activity (B16-BL6 [12]) | inhibition [13] | inhibition [14] | inhibition at 100 µM (EA.hy 926 [15]) |
| --- | --- | --- | --- | --- | --- | --- | --- | --- | --- | --- | --- | --- | --- | --- | --- |
| 48% | Active | CC(=O)N[C@H]1Cc2cn(nn2)CCCC[C@@H](C(=O)N[C@H]2Cc3cn(nn3)CCCC[C@@H](C(=O)N[C@@H](Cc3ccc(O)cc3)C(N)=O)NC(=O)[C@H](CC(=O)O)NC(=O)[C@H](C(C)C)NC(=O)[C@H](Cc3ccccc3)NC2=O)NC(=O)[C@H](CCC(N)=O)NC(=O)[C@H](CCCNC(=N)N)NC(=O)[C@H](Cc2c[nH]c3ccccc23)NC1=O (Ac-[Pra]WRQ[Lys(N3)][Pra]FVD[Lys(N3)]Y-NH2; triazole 1-5, 6-10) | Non-Toxic | – | – | – | – | – | – | – | – | – | – | – | – |
| – | – | CC(C)[C@@H]1NC(=O)[C@H](Cc2ccccc2)NC(=O)[C@@H](NC(=O)[C@@H]2CCCCn3cc(nn3)C[C@H](NC(=O)CCCCCNC(=O)[C@@H](N)CCCCN)C(=O)N[C@@H](Cc3c[nH]c4ccccc34)C(=O)N[C@@H](CCCNC(=N)N)C(=O)N[C@@H](CCC(N)=O)C(=O)N2)Cc2cn(nn2)CCCC[C@@H](C(=O)N[C@@H](Cc2ccc(O)cc2)C(N)=O)NC(=O)[C@H](CC(=O)O)NC1=O (H-K[Ahx][Pra]WRQ[Lys(N3)][Pra]FVD[Lys(N3)]Y-NH2; triazole 3-7, 8-12) | – | Non-Toxic | 20% | Active | 25% | – | – | – | – | – | – | – | – |
| – | – | CC(C)[C@H](NC(=O)[C@H](Cc1ccccc1)NC(=O)[C@H](C)NC(=O)[C@H](C)NC(=O)[C@H](CCC(N)=O)NC(=O)[C@H](CCCNC(=N)N)NC(=O)[C@@H](N)Cc1c[nH]c2ccccc12)C(=O)N[C@@H](CC(=O)O)C(=O)N[C@@H](CO)C(=O)N[C@@H](Cc1ccc(O)cc1)C(=O)O (H-WRQAAFVDSY-OH) | – | Non-Toxic | – | – | 35% | 14% | 2.27 min | inactive | inactive | Non-Toxic | Active | Dose-Dependent Effect | 17% |
